The values below come from the METLIN SMRT retention time set (Domingo-Almenara et al. 2019).

Molecules are shown by their SMILES.

The series is described as follows: gradient 5% acetonitrile 3 min, to 50% in 2 min, to 85% in 15 min, held 3 min, 100 µL/min. Conditions: column: Zorbax Extend-C18 2.1 x 50 mm; eluents: water / acetonitrile, 0.1% formic acid. The gist of the method: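 Retention times of pure standards were taken from adduct peaks that were selected by computer and manually inspected. Over 3 months, mixtures of ~100 molecules were run by HPLC–quadrupole time-of-flight mass spectrometry in positive and negative ionization mode. The Zorbax Extend-C18 column (2.1 × 50 mm, 1.8 μm) ran at 100 μL/min in water and acetonitrile, each containing 0.1% formic acid, with 40 μL dead volume and 900 μL dwell volume.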
The molecule `CCOC(=O)c1cc(S(=O)(=O)N2CCCC2C(=O)Nc2ccc(C)cc2Br)cn1C` (stereo not given) displayed an RP-LC retention time of 1060 s.
Molecule `CCN(CC)S(=O)(=O)c1ccc2c(c1)N(CC(=O)N(C)Cc1ccco1)C(=O)C1CCCCN21` (stereo not given) showed an RP-LC retention time of 959 s.
Molecule `CCn1c(C(=O)NC2CCCC2)cc2sc(Cl)cc21` gave an RP-LC retention time of 1110 s.
In the case of `COc1ccc(-c2noc(CSc3nccn3-c3ccc(C)cc3)n2)cc1OC`, the RP-LC retention time worked out at 856 s.
Take `CN(C)c1ccc(C(=O)NCC(=O)Nc2nc3ccccc3[nH]2)cc1`: the RP-LC retention time was found to be 625 s.
As to `COc1ccc2nccc(/C=C/c3ccnc4ccc(OC)cc34)c2c1`, the RP-LC retention time amounted to 671 s.
Next, `Cc1cc(C)cc(N2CCC(NC(=O)CC(C)C)C2=O)c1` (stereo not given): 814 s.
`CCC(=O)NCc1nc2c(n1C)CN(S(=O)(=O)Cc1ccc(Cl)cc1)CC2` had an RP-LC retention time of 539 s.
The molecule `CCOc1ccccc1CNC(=O)Cc1nnc(-c2cccc(F)c2)o1` yielded an RP-LC retention time of 805 s.
`Cn1c(=O)c(C(=O)NC2CCCC2)nc2cccnc21` showed an RP-LC retention time of 707 s.
Turning to `Cc1sc(-n2c(C)c3c(C)nnc(C)c3c2C)nc1-c1ccccc1`, the RP-LC retention time was 687 s.
Consider `Cc1ccc(-c2nc(-c3ccc4c(c3)nc(C)c(=O)n4C)no2)c(C)c1`, for which the RP-LC retention time turned out to be 1220 s.
Turning to `Cc1ccc(CNC(=O)c2ccc(-c3cc(N4CCCC4)ncn3)cc2)o1`, the RP-LC retention time is 654 s.
The molecule `COc1ccc(Cl)cc1S(=O)(=O)NCC1(C)CCOCC1` displayed an RP-LC retention time of 874 s.
Next, `COCCN1C(=O)c2ccccc2C(C(=O)Nc2cccc(C)n2)C12CCCCC2` (stereo not given): 828 s.
Next, `COc1ccc2[nH]cc(CCNC(=O)c3sc4ncccc4c3-n3cccc3)c2c1`: 932 s; `Cc1cccc(NC(=O)N2CCN(c3nc(C)cc(Nc4ccccc4)n3)CC2)c1`: 733 s; `COc1ccc(COC(=O)C2=CN(Cc3ccc(OC)cc3)S(=O)(=O)N=C2C)cc1`: 923 s.
In the case of `CCCn1cc(S(=O)(=O)NCc2ccc(C)c(C)c2)c2cccnc21`, the RP-LC retention time is 984 s.
Regarding `O=C(/C=C/c1ccc(O)c(O)c1)c1ccc(O[C@@H]2O[C@H](CO)[C@@H](O)[C@H](O)[C@H]2O)c(O)c1O`, the RP-LC retention time came to 641 s.
In turn, `CC(C)N1CCn2cc(S(=O)(=O)Nc3ccc(F)cc3)cc2C1=O` yielded an RP-LC retention time of 757 s.
With `Cc1nc(NC(=O)Cn2nc(-n3cccn3)ccc2=O)sc1C(=O)N(C)C` the figure was 585 s.
`Cc1ccc(N2CCN(c3nccn4c(=O)n(CC(=O)Nc5cc(C)cc(C)c5)nc34)CC2)cc1` returned an RP-LC retention time of 1030 s.
`Cc1cc(C)c2c(-n3cccc3)nn(CC(=O)NC3CCCCCC3)c2n1`: the RP-LC retention time was 1050 s.
Molecule `CC(C)CCNC(=O)c1c2c(cn(-c3ccccc3)c1=O)C(=O)CC(C)(C)C2` showed an RP-LC retention time of 1030 s.
The molecule `Cc1cc(-c2nnc(-c3ccccc3)o2)c(C)n1CC(=O)NC1CCCC1` came in with an RP-LC retention time of 886 s.
`Cc1ccc(C(=O)N2CCc3[nH]nc(C(=O)N(C)C)c3C2)cc1C` returned an RP-LC retention time of 657 s.
In the case of `Cc1cccc(CNC(=O)c2ccc3ncnc(N4CCCC4)c3c2)c1`, the RP-LC retention time was 647 s.
`CCC(c1cccs1)N1C(=O)[C@H]2CN(S(=O)(=O)c3ccc(F)c(C)c3)C[C@H]2C1=O` (stereo not given in full) had an RP-LC retention time of 978 s.
In the case of `Cc1ccn2cc(-c3ccc(C)c(NS(=O)(=O)c4ccc(Cl)cc4)c3)nc2c1`, the RP-LC retention time was determined as 698 s.
With `CCN1CCCC1CN(CCC(=O)N1CCNCC1)C(=O)c1ccc(C(F)(F)F)cc1` (stereo not given) the figure was 569 s.
As to `COc1cc(Cl)ccc1-c1nc(C2CC(=O)N(c3ccc(C)cc3)C2)no1` (stereo not given), the RP-LC retention time is 1070 s.
For `CCOc1cc(S(=O)(=O)NCc2ccccn2)ccc1Br`, the RP-LC retention time was determined as 666 s.
Next, `Cn1c(-c2cccc(C(=O)NC3CCCCCC3)c2)nc2cccnc21`: 780 s.
The molecule `O=C(Cc1cccs1)Nc1onc2c1CCCC2` came in with an RP-LC retention time of 730 s.
`COc1cccc(Cn2nc3n(Cc4ccc(C)cc4)c(=O)c4nn(C)cc4n3c2=O)c1` had an RP-LC retention time of 935 s.
Next, `Cc1ccc2c(=O)c3c([nH]c2c1C)CCN(CC(=O)Nc1cccc(Cl)c1)C3`: 640 s; `Cc1c(C(=O)Nc2ccccc2)sc2nc[nH]c(=O)c12`: 679 s; `Cc1ccc2c(c1)N(C(=O)Cn1c(C(C)C)nc3c(c1=O)CCN(Cc1ccccc1)C3)CCO2`: 787 s.
Next, `CCOC(=O)c1c(C)[nH]c(C(=O)N2CCC(C(C)C(=O)NCc3ccc(F)cc3)CC2)c1C` (stereo not given): 805 s; `O=C(NCc1ccccn1)c1cc(-c2cccnc2)nc2ccc(Cl)cc12`: 642 s; `Cc1oc2ccn(Cc3ccc(F)cc3)c(=O)c2c1C(=O)NCc1ccco1`: 975 s.
Molecule `COc1ccccc1OCC(=O)Nc1ccc2c(c1)CN(C(=O)C1CC1)CC2` came in with an RP-LC retention time of 743 s.
For the molecule `CCCCOc1ccc(C(=O)Nc2cccc3c2C(=O)NC3=O)cc1`, the RP-LC retention time stood at 1020 s.
With `CCCN1C(=O)COc2ccc(-c3csc(NC(=O)CCc4ccccc4)n3)cc21` the figure was 1070 s.
Next, `NC(=O)C1CCN(C(=O)CN2CCN(c3cccc(Cl)c3)CC2)CC1`: 600 s.
Take `O=C(O)CN1CCCc2nc(-c3ccccc3)ncc2C1=O`: the RP-LC retention time was 716 s.
In turn, `COc1ccccc1-c1noc(C2CCCN2C(=O)Nc2ccccc2Br)n1` (stereo not given) displayed an RP-LC retention time of 972 s.
With `Cc1nc2cc(-c3noc(-c4sc(C)nc4C)n3)ccc2o1`, the RP-LC retention time came out at 951 s.
With `CC1=C(c2ccc(C)cc2)S(=O)(=O)N=C1N1CCCN(C(=O)NCC(C)C)CC1` the figure was 822 s.
Turning to `CSc1cccc(NC(=O)Cn2c(=O)n(C3CC3)c(=O)c3nscc32)c1`, the RP-LC retention time was 705 s.
`O=C(Nc1nc(-c2ccccn2)cs1)c1ccc(N2CCOCC2)c([N+](=O)[O-])c1` returned an RP-LC retention time of 631 s.
For the molecule `O=C(Nc1cnc(N2CCCC2)nc1)c1ccsc1`, the RP-LC retention time was determined as 658 s.
With `Cc1ccc(Cn2nnc(-c3noc(C)n3)c2C)cc1`, the RP-LC retention time stood at 860 s.
`O=C(NC1CCCCC1)C(c1ccc(Cl)cc1)N1CCN(C(=O)c2ccco2)CC1` (stereo not given) gave an RP-LC retention time of 773 s.
With `CCN(C(=O)CSC1=Nc2ccccc2NC(CC(=O)OC)=C1)c1cccc(C)c1` the figure was 1160 s; with `O=C(Cn1c(-c2cccs2)nc2ccccc21)NC1CC1`, 596 s; with `O=C(Cc1cccs1)NCC(=O)Nc1nc2ccccc2[nH]1`, 609 s.
As for `CC(=O)c1ccc(NC(=O)N(C)C)cc1`, the RP-LC retention time came out at 588 s.
Molecule `CN1C(=O)CC[C@]2(C(=O)N3CCN(c4ccc(F)cc4)CC3)CCCC[C@@H]12` came in with an RP-LC retention time of 723 s.
`Cc1c(Cl)cccc1S(=O)(=O)N1CCC(CN2CCCCCC2)CC1` gave an RP-LC retention time of 733 s.
On to `CC1(C(=O)NCc2ccccc2)Cn2cnc(C(=O)NCc3ccc(Cl)cc3)c2C(=O)N1C1CC1` (stereo not given), for which the RP-LC retention time is 789 s.
`Cc1cccc(-c2noc(C3CCCN3C(=O)Nc3ccc4c(c3)OCO4)n2)c1` (stereo not given) came in with an RP-LC retention time of 961 s.
`CC(C)C(=O)N1CCc2cc(CNC(=O)c3ccnn3C)ccc21` showed an RP-LC retention time of 708 s.
Next, `CCc1ccc(CNC(=O)c2cn(-c3cc(-c4nc(C)no4)ccn3)cn2)cc1`: 805 s; `COc1ccc(S(=O)(=O)N2CCC(C(=O)NCCc3csc(-c4cccs4)n3)CC2)cc1`: 863 s; `COc1cc(OC)c(NS(=O)(=O)c2c(C)sc(C)c2-c2cc(C(F)(F)F)on2)cc1Cl`: 1170 s.
`COc1ccc(C(C)NC(=O)C2=C3CCCN3c3ccccc3S2(=O)=O)cc1OC` (stereo not given) returned an RP-LC retention time of 779 s.
`CCNC(=O)Nc1ccc2c(c1)CN(Cc1scnc1C)CCO2` showed an RP-LC retention time of 566 s.
The molecule `Fc1ccccc1-c1nnc(SCc2cccc(C(F)(F)F)c2)o1` returned an RP-LC retention time of 1070 s.
For the molecule `CCN1CCN(c2cc(C)c3cc(NC(=O)c4ccco4)ccc3n2)CC1`, the RP-LC retention time came out at 560 s.
In turn, `COCCNc1ncc(C(=O)O)c(-c2ccc(OC)cc2)n1` gave an RP-LC retention time of 658 s.
The molecule `Cc1ccc(-c2ncc3c(=O)n(CC(=O)NC4CCCCCC4)c(=O)n(C)c3n2)cc1` came in with an RP-LC retention time of 1080 s.
Molecule `Cc1cc(C)n2nc(SCC(=O)N(C)Cc3ccccc3)nc2n1` gave an RP-LC retention time of 710 s.
The molecule `O=C(Cn1c(CN2CCOCC2)nc2ccccc21)N1CCCC1` returned an RP-LC retention time of 579 s.
Molecule `COc1ccc(C(=O)N2CC3CN(S(=O)(=O)c4ccc(OC)cc4)CC(C2)O3)cc1` had an RP-LC retention time of 769 s.
For `Cc1c(C(=O)N2CCSCC2)cnn1-c1ncccc1-c1nc(C2CC2)no1`, the RP-LC retention time came to 740 s.
Next, `Cn1c(=O)n(C)c2cc(CNCCc3ccc(Cl)cc3Cl)ccc21`: 653 s.
The molecule `COc1ccc2c(c1)C1(CCN(C(=O)c3ccc(F)cc3)C1)C(=O)N2` (stereo not given) returned an RP-LC retention time of 714 s.
For the molecule `Cc1cc(-c2nnc(-c3ccco3)o2)c(C)n1CC(=O)NCc1ccccc1Cl`, the RP-LC retention time came to 863 s.
